Test results from ChEMBL document CHEMBL5137024, “Discovery of novel coumarin-indole derivatives as tubulin polymerization inhibitors with potent anti-gastric cancer activities” (Eur J Med Chem, 2022).
Active and inactive are the calls of the source. The rule behind the calls is not given here.

Assays:
PC-3 = experiment: Antiproliferative activity against human PC-3 cells assessed as reduction in cell viability incubated for 48 hrs by MTT assay; assay type: functional, cell-based; details: PC-3, 48 h
SH-SY5Y = experiment: Antiproliferative activity against human SH-SY5Y cells assessed as reduction in cell viability incubated for 48 hrs by MTT assay; assay type: functional, cell-based
MGC-803 [1] = experiment: Antiproliferative activity against human MGC-803 cells assessed as reduction in cell viability at 15 to 30 nM by MTT assay; assay type: functional, cell-based; details: dose 15-30 nM, time 12-48 hrs, TDE = time-dependent effect
HGC-27 [2] = experiment: Antiproliferative activity against human HGC-27 cells assessed as reduction in cell viability at 15 to 30 nM by MTT assay; assay type: functional, cell-based; details: dose 15-30 nM, time 12-48 hrs, TDE = time-dependent effect
MGC-803 [3] = experiment: Antiproliferative activity against human MGC-803 cells assessed as reduction in cell viability incubated for 12 to 48 hrs by MTT assay; assay type: functional, cell-based; details: dose 15-30 nM, time 12-48 hrs, DDE = dose-dependent effect
MGC-803 [4] = experiment: Inhibition of ERK signalling pathway in human MGC-803 cells assessed as downregulation of ERK1/2 phosphorylation at 5 to 15 nM incubated for 48 hrs; assay type: cell-based; details: dose 5-15 nM
MGC-803 [5] = experiment: Inhibition of p38 signalling pathway in human MGC-803 cells assessed as reduction in p38 phosphorylation at 5 to 15 nM incubated for 48 hrs; assay type: cell-based; details: dose 5-15 nM
MGC-803 [6] = experiment: Inhibition of p38 signalling pathway in human MGC-803 cells assessed as reduction in downstream substrate MAPKAPK2 phosphorylation at 5 to 15 nM incubated for 48 hrs; assay type: cell-based; details: dose 5-15 nM
MGC-803 [7] = experiment: Inhibition of p38 signalling pathway in human MGC-803 cells assessed as reduction in downstream substrate HSP-27 phosphorylation at 5 to 15 nM incubated for 48 hrs; assay type: cell-based; details: dose 5-15 nM
MGC-803 [8] = experiment: Downregulation of phosphorylated ATF-2 expression in human MGC-803 cells incubated for 48 hrs; assay type: functional, cell-based; details: dose 5-15 nM, DDE = dose-dependent effect
HGC-27 [9] = experiment: Downregulation of ATF4 expression in human HGC-27 cells incubated for 48 hrs; assay type: functional, cell-based; details: dose 10-30 nM, DDE = dose-dependent effect
HGC-27 [10] = experiment: Downregulation of FoxO3a expression in human HGC-27 cells incubated for 48 hrs; assay type: functional, cell-based; details: dose 10-30 nM, DDE = dose-dependent effect
[11] = Induction of mitochondria mediated intrinsic apoptosis in human MGC-803 cells assessed as late apoptotic cells at 5 nM measured after 48 hrs by flow cytometry analysis (Rvb= […]); assay type: functional
[12] = Induction of mitochondria mediated intrinsic apoptosis in human MGC-803 cells assessed as early apoptotic cells at 10 nM measured after 48 hrs by flow cytometry analysis (Rvb= 1.6%); assay type: functional
[13] = Induction of mitochondria mediated intrinsic apoptosis in human HGC-27 cells assessed as early apoptotic cells at 10 nM measured after 48 hrs by flow cytometry analysis (Rvb= 6.4%); assay type: functional
[14] = Induction of mitochondria mediated intrinsic apoptosis in human HGC-27 cells assessed as late apoptotic cells at 10 nM measured after 48 hrs by flow cytometry analysis (Rvb= 93.6%); assay type: functional
[15] = Induction of mitochondria mediated intrinsic apoptosis in human HGC-27 cells assessed as early apoptotic cells at 20 nM measured after 48 hrs by flow cytometry analysis (Rvb= 6.4%); assay type: functional
[16] = Induction of mitochondria mediated intrinsic apoptosis in human HGC-27 cells assessed as late apoptotic cells at 20 nM measured after 48 hrs by flow cytometry analysis (reference value: 93.6%); assay type: functional
MGC-803 [17] = experiment: Induction of apoptosis in human MGC-803 cells assessed as cell rounding at 5 to 15 nM incubated for 48 hrs by bright field imaging analysis; assay type: functional, cell-based; details: dose 5-15 nM
MGC-803 [18] = experiment: Induction of apoptosis in human MGC-803 cells assessed as nuclear concentration at 5 to 15 nM incubated for 48 hrs by DAPI staining based analysis; assay type: functional, cell-based; details: dose 5-15 nM
HGC-27 [19] = experiment: Induction of apoptosis in human HGC-27 cells assessed as nuclear fragmentation at 10 to 30 nM incubated for 48 hrs by DAPI staining based analysis; assay type: functional, cell-based; details: dose 10-30 nM
MGC-803 [20] = experiment: Induction of apoptosis in human MGC-803 cells assessed as increase in dead cells at 5 to 15 nM incubated for 48 hrs by calcein-AM dye/propidium iodide staining based analysis; assay type: functional, cell-based; details: dose 5-15 nM
HGC-27 [21] = experiment: Induction of apoptosis in human HGC-27 cells assessed as increase in dead cells at 10 to 30 nM incubated for 48 hrs by calcein-AM dye/propidium iodide staining based analysis; assay type: functional, cell-based; details: dose 10-30 nM
MGC-803 [22] = experiment: Induction of apoptosis in human MGC-803 cells assessed as decrease in Mcl-1 level; assay type: functional, cell-based; details: dose 5-15 nM, DDE = dose-dependent effect
MGC-803 [23] = experiment: Induction of apoptosis in human MGC-803 cells assessed as increase in Noxa level; assay type: functional, cell-based; details: dose 5-15 nM, DDE = dose-dependent effect
MGC-803 [24] = experiment: Induction of apoptosis in human MGC-803 cells assessed as upregulation of DR5 level; assay type: functional, cell-based; details: dose 5-15 nM, DDE = dose-dependent effect
MGC-803 [25] = experiment: Downregulation of cdc2 phosphorylation at Thr14 residue in human MGC-803 cells at 5 to 15 nM incubated for 48 hrs; assay type: functional, cell-based; details: dose 5-15 nM
HGC-27 [26] = experiment: Upregulation of phosphorylated Histone H3 expression in human HGC-27 cells at 10 to 30 nM incubated for 48 hrs; assay type: functional, cell-based; details: dose 10-30 nM
MGC-803 [27] = experiment: Inhibition of cell migration in human MGC-803 cells assessed as reduction in wound healing rate at 5 to 15 nM incubated for 24 hrs; assay type: functional, cell-based; details: dose 5-15 nM
HGC-27 [28] = experiment: Inhibition of cell migration in human HGC-27 cells assessed as reduction in wound healing rate at 10 to 30 nM incubated for 24 hrs; assay type: functional, cell-based; details: dose 10-30 nM
HGC-27 [29] = experiment: Antiinvasive activity against human HGC-27 cells assessed as reduction in number of cells in membrane incubated for 48 hrs by trans well assay; assay type: functional, cell-based; details: dose 10-30 nM, DDE = dose-dependent effect
HGC-27 [30] = experiment: Downregulation of MMP-9 expression in human HGC-27 cells incubated for 48 hrs; assay type: functional, cell-based; details: dose 10-30 nM, DDE = dose-dependent effect
MGC-803 [31] = experiment: Downregulation of vimentin expression in human MGC-803 cells incubated for 48 hrs; assay type: functional, cell-based; details: dose 5-15 nM, DDE = dose-dependent effect
MGC-803 [32] = experiment: Antitumor activity against human MGC-803 cells xenografted BALB/c nude mouse assessed as tumor growth inhibition at 15 mg/kg, ip administered once daily for 21 days; assay type: functional; details: MGC-803, 504 h, time 21 day, read-out: TGI
MGC-803 [33] = experiment: Antitumor activity against human MGC-803 cells xenografted BALB/c nude mouse assessed as tumor growth inhibition at 30 mg/kg, ip administered once daily for 21 days; assay type: functional; details: MGC-803, 504 h, time 21 day, read-out: TGI
[34] = Toxicity in BALB/c nude mouse xenografted with human MGC-803 cells assessed as pathological changes in spleen at 15 to 30 mg/kg, ip administered once daily for 21 days by Hematoxyin-eosin staining based analysis; assay type: organism-based; details: in vivo, 504 h, dose 15-30 mg/kg, time 21 day
Mus musculus = experiment: Downregulation of JNK phosphorylation in tumor tissue of BALB/c nude mouse xenografted with human MGC-803 cells at 15 to 30 mg/kg, ip administered once daily for 21 days by Western blotting analysis; assay type: functional, organism-based; details: dose 15-30 mg/kg, time 21.0 day

IC50 (PC-3): 34.9 nM | IC50 (SH-SY5Y): 19.4 nM
SMILES: CN(c1ccc2c(ccn2C)c1)c1cc(=O)oc2ccccc12
Activity (MGC-803 [1]): Tde | Activity (HGC-27 [2]): Tde | Activity (MGC-803 [3]): Dde | inhibition (MGC-803 [4]): Active | inhibition (MGC-803 [5]): Active | inhibition (MGC-803 [6]): Active | inhibition (MGC-803 [7]): Active | Activity (MGC-803 [8]): Dde | Activity (HGC-27 [9]): Dde | Activity (HGC-27 [10]): Dde | Activity [11]: 98.1% | Activity [12]: 7.2% | Activity [13]: 8.3% | Activity [14]: 91.6% | Activity [15]: 21.6% | Activity [16]: 78.3% | Activity (MGC-803 [17]): Active | Activity (MGC-803 [18]): Active | Activity (HGC-27 [19]): Active | Activity (MGC-803 [20]): Active | Activity (HGC-27 [21]): Active | Activity (MGC-803 [22]): Dde | Activity (MGC-803 [23]): Dde | Activity (MGC-803 [24]): Dde | Activity (MGC-803 [25]): Active | Activity (HGC-27 [26]): Active | inhibition (MGC-803 [27]): Active | inhibition (HGC-27 [28]): Active | Activity (HGC-27 [29]): Dde | Activity (HGC-27 [30]): Dde | Activity (MGC-803 [31]): Dde | inhibition in vivo at 15 mg/kg (MGC-803 [32]): 70% | inhibition in vivo at 30 mg/kg (MGC-803 [33]): 80% | Activity [34]: Non-Toxic | Activity (Mus musculus): Active
